Measurements from doi:10.1101/2020.09.06.284752v1 (biorxiv, 2020).

How the values were obtained:
[1] = molecular target: T1, recombinant human PFKM (Homo sapiens, UniProt P08237); experiment: PFKM enzymatic activity inhibition; type: biochemical
T1 sequence (P08237 2-780): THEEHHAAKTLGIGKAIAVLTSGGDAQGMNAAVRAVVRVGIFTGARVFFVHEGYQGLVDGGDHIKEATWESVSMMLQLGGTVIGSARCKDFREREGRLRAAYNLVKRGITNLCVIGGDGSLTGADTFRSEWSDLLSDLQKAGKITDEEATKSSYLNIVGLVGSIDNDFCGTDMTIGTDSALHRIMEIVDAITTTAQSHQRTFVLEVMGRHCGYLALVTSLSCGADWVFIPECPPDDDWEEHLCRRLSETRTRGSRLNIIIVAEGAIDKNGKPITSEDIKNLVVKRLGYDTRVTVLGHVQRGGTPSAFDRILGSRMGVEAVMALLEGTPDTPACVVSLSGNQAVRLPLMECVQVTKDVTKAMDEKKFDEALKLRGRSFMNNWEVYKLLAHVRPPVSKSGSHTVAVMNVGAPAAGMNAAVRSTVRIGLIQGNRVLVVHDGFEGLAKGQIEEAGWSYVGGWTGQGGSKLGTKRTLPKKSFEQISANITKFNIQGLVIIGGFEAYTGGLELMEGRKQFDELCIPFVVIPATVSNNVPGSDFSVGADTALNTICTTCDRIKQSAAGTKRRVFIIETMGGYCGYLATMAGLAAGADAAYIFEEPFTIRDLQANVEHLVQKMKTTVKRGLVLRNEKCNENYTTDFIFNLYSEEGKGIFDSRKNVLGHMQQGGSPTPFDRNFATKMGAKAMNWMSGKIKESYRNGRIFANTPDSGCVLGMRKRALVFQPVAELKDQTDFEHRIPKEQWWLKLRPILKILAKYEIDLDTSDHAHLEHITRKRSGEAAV

[2] = molecular target: T2, recombinant PFKL (Homo sapiens, UniProt P17858); experiment: PFKL enzymatic activity inhibition; type: biochemical
T2 sequence (P17858 2-780): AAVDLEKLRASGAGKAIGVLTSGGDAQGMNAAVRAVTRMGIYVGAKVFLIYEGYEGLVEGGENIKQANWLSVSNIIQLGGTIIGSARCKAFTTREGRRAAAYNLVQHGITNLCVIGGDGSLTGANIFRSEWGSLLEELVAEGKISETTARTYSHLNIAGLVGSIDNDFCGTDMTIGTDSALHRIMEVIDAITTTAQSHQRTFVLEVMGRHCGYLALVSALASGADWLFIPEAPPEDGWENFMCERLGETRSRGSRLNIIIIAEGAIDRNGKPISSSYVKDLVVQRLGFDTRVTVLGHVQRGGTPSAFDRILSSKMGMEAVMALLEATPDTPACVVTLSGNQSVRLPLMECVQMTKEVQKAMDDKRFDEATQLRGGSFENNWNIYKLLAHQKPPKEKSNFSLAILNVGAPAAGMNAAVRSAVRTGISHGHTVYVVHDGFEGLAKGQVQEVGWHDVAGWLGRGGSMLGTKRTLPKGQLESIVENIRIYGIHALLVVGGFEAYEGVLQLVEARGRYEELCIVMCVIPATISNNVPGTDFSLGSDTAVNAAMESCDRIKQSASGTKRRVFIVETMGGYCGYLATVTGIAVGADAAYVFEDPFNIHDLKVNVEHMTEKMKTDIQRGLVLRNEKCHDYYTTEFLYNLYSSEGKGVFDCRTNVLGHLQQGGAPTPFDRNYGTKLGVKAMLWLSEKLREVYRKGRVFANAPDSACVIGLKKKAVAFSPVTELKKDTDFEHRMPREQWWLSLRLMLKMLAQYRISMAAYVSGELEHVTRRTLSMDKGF

| Structure (SMILES) | IC50 [1] [nM] | IC50 [2] [nM] |
| --- | --- | --- |
| C#CCNC(=O)[C@]1(C)CC[C@]2(C)CC[C@]3(C)C4=CC=C5C(=CC(=O)C(O)=C5C)[C@]4(C)CC[C@@]3(C)[C@@H]2C1 [1-85] | 507 |  |
| O=C(c1cccs1)c1no[n+]([O-])c1C(=O)c1cccs1 [3-79] | 292 ± 20.8 |  |
| CC1=C(O)C(=O)C=C2C1=CC=C1[C@@]2(C)CC[C@@]2(C)[C@@H]3C[C@](C)(C(=O)O)CC[C@]3(C)CC[C@]12C [celastrol] | 349 | 916 ± 35.7 |
